According to ChEMBL document CHEMBL3526135, “Induction of xenobiotic receptors, transporters, and drug metabolizing enzymes by oxycodone” (Drug Metab Dispos, 2013):

Experiments:
Type in all cases: ADME, organism-based
Design in all cases: dose 15 mg/kg, route intraperitoneal
Slc22a5 = assay: Effect on Slc22a5 mRNA expression in Sprague-Dawley rat liver at 15 mg/kg, ip administered twice daily every 12 hrs for 8 days by microarray analysis relative to control; settings: read-out: FC
Rattus norvegicus [1] = assay: Effect on CYP17a1 mRNA expression in Sprague-Dawley rat liver at 15 mg/kg, ip administered twice daily every 12 hrs for 8 days by qRT-PCR analysis relative to control; settings: in vivo
Slc16a10 = assay: Effect on Slc16a10 mRNA expression in Sprague-Dawley rat liver at 15 mg/kg, ip administered twice daily every 12 hrs for 8 days by microarray analysis relative to control; settings: read-out: FC
CYP2j4 = assay: Effect on CYP2j4 mRNA expression in Sprague-Dawley rat liver at 15 mg/kg, ip administered twice daily every 12 hrs for 8 days by microarray analysis relative to control; settings: read-out: FC
Rattus norvegicus [2] = assay: Effect on Fkbp5 mRNA expression in Sprague-Dawley rat liver at 15 mg/kg, ip administered twice daily every 12 hrs for 8 days by qRT-PCR analysis relative to control; settings: in vivo
Abcb1a = assay: Effect on Abcb1a mRNA expression in Sprague-Dawley rat liver at 15 mg/kg, ip administered twice daily every 12 hrs for 8 days by microarray analysis relative to control; settings: read-out: FC
Slc25a15 = assay: Effect on Slc25a15 mRNA expression in Sprague-Dawley rat liver at 15 mg/kg, ip administered twice daily every 12 hrs for 8 days by microarray analysis relative to control; settings: read-out: FC
Slc1a2 = assay: Effect on Slc1a2 mRNA expression in Sprague-Dawley rat liver at 15 mg/kg, ip administered twice daily every 12 hrs for 8 days by microarray analysis relative to control; settings: read-out: FC
Rattus norvegicus [3] = assay: Effect on CYP2b2 mRNA expression in Sprague-Dawley rat liver at 15 mg/kg, ip administered twice daily every 12 hrs for 8 days by qRT-PCR analysis relative to control; settings: in vivo
Rattus norvegicus [4] = assay: Effect on CYP2d1 mRNA expression in Sprague-Dawley rat liver at 15 mg/kg, ip administered twice daily every 12 hrs for 8 days by qRT-PCR analysis relative to control; settings: in vivo
Abca8b = assay: Effect on Abca8b mRNA expression in Sprague-Dawley rat liver at 15 mg/kg, ip administered twice daily every 12 hrs for 8 days by microarray analysis relative to control; settings: read-out: FC
Rattus norvegicus [5] = assay: Effect on GAPDH mRNA expression in Sprague-Dawley rat liver at 15 mg/kg, ip administered twice daily every 12 hrs for 8 days by qRT-PCR analysis relative to control; settings: in vivo
Rattus norvegicus [6] = assay: Effect on Slc15a3 mRNA expression in Sprague-Dawley rat liver at 15 mg/kg, ip administered twice daily every 12 hrs for 8 days by qRT-PCR analysis relative to control; settings: in vivo
Por = assay: Effect on Por mRNA expression in Sprague-Dawley rat liver at 15 mg/kg, ip administered twice daily every 12 hrs for 8 days by microarray analysis relative to control; settings: read-out: FC
CYP3a1 = assay: Effect on CYP3a1 mRNA expression in Sprague-Dawley rat liver at 15 mg/kg, ip administered twice daily every 12 hrs for 8 days by microarray analysis relative to control; settings: read-out: FC
Rattus norvegicus [7] = assay: Effect on PXR mRNA expression in Sprague-Dawley rat liver at 15 mg/kg, ip administered twice daily every 12 hrs for 8 days by qRT-PCR analysis relative to control; settings: in vivo
ABCB1 = assay: Upregulation of ABCB1 protein expression in Sprague-Dawley rat liver microsomes at 15 mg/kg, ip administered twice daily every 12 hrs for 8 days by Western blot analysis relative to control; settings: read-out: FC
Rattus norvegicus [8] = assay: Effect on Ces2 mRNA expression in Sprague-Dawley rat liver at 15 mg/kg, ip administered twice daily every 12 hrs for 8 days by qRT-PCR analysis relative to control; settings: in vivo
CYP4b1 = assay: Effect on CYP4b1 mRNA expression in Sprague-Dawley rat liver at 15 mg/kg, ip administered twice daily every 12 hrs for 8 days by microarray analysis relative to control; settings: read-out: FC
CYP17a1 = assay: Effect on CYP17a1 mRNA expression in Sprague-Dawley rat liver at 15 mg/kg, ip administered twice daily every 12 hrs for 8 days by microarray analysis relative to control; settings: read-out: FC
Rattus norvegicus [9] = assay: Effect on CYP2c13 mRNA expression in Sprague-Dawley rat liver at 15 mg/kg, ip administered twice daily every 12 hrs for 8 days by qRT-PCR analysis relative to control; settings: in vivo

`COc1ccc2c3c1O[C@H]1C(=O)CC[C@@]4(O)[C@@H](C2)N(C)CC[C@]314.Cl` [OXYCODONE HYDROCHLORIDE] was tested. Which fold induction at 8 days (Slc22a5) did it give?
Its fold induction at 8 days is 2.8.

And the Activity (Rattus norvegicus [1])?
Its Activity is “Active”.

And the fold induction at 8 days (Slc16a10)?
The fold induction at 8 days was 3.

What about the fold induction at 8 days (CYP2j4) of the same compound?
Its fold induction at 8 days is 2.4.

And the Activity (Rattus norvegicus [2])?
Its Activity is “Active”.

And the fold induction at 8 days (Abcb1a)?
Its fold induction at 8 days is 2.8.

What about the fold induction at 8 days (Slc25a15) of the same compound?
The fold induction at 8 days was 2.1.

What about the fold induction at 8 days (Slc1a2) of the same compound?
Its fold induction at 8 days is 2.4.

What about the Activity (Rattus norvegicus [3]) of the same compound?
The Activity was “Active”.

What about the Activity (Rattus norvegicus [4]) of the same compound?
Its Activity is “Active”.

And the fold induction at 8 days (Abca8b)?
Its fold induction at 8 days is 2.3.

And the Activity (Rattus norvegicus [5])?
The Activity was “Active”.

And the Activity (Rattus norvegicus [6])?
Its Activity is “Active”.

What about the fold induction at 8 days (Por) of the same compound?
The fold induction at 8 days was 7.

What about the fold induction at 8 days (CYP3a1) of the same compound?
Its fold induction at 8 days is 1.7.

And the Activity (Rattus norvegicus [7])?
Its Activity is “Active”.

And the fold induction at 8 days (ABCB1)?
The fold induction at 8 days was 3.

And the Activity (Rattus norvegicus [8])?
The Activity was “Active”.

And the fold induction at 8 days (CYP4b1)?
Its fold induction at 8 days is 1.9.

And the fold induction at 8 days (CYP17a1)?
The fold induction at 8 days was 17.1.

What about the Activity (Rattus norvegicus [9]) of the same compound?
The Activity was “Active”.
